Data taken from article PMC5796027, “Thiopurine Drugs Repositioned as Tyrosinase Inhibitors” (International Journal of Molecular Sciences, 2017).
Entries after “also recorded” stand apart in the source; their conditions may differ.

Tests used:
tyrosinase = details: cited from earlier work; for reported inhibition of tyrosinase through direct binding: literature survey ref 36,37
mushroom tyrosinase [1] = target: T1, mushroom tyrosinase (Agaricus bisporus, UniProt C7FF04); assay: Differential scanning fluorimetry (DSF); format: binding; details: 0.5 μM protein, 200 μM inhibitor, control without inhibitor 51.8 °C
Experimental: DSF—The stability of mushroom tyrosinase in the presence and absence of inhibitors was assessed using DSF using a […] (RT-PCR) CFX96 system (BioRad, Hercules, CA, USA). […] The Tm value, which is the mid-point melting temperature, was calculated from a nonlinear fit of the temperature-dependent fluorescent intensity I(T), expressed as the Boltzmann equation: I(T)=LL+UL−LL/1+exp(Tm−T/a), where UL and LL are related to the baseline and top of the curves, respectively, and a is the steepness of the slope. Only data in the range of 35–65 °C were used for the fitting.
Target sequence in this assay (C7FF04 1-392 limits assumed): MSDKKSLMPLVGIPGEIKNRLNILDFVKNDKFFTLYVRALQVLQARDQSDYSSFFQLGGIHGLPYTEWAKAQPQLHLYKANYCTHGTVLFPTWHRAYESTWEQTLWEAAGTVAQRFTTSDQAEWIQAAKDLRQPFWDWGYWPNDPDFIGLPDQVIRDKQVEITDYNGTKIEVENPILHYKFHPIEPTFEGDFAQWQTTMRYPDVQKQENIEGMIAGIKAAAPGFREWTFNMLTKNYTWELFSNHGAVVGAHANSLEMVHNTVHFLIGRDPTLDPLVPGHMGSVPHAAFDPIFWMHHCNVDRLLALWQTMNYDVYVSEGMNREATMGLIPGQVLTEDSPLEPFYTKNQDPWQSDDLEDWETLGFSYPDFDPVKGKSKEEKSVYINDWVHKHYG

mammalian tyrosinase = target: T2, mammalian tyrosinase (Mus musculus, UniProt P11344); assay: Tyrosinase inhibition in B16F10 cell lysates (L-DOPA substrate); format: biochemical, murine; details: 10, 20, 50 μM inhibitor, 500 μM L-DOPA
T2 construct: we performed an enzymatic assay with melanoma B16F10 cell lysates; endogenous in cells; host or cells: B16F10 murine melanoma cells (Korean Cell Line Bank), Triton X-100 lysate, dialysed supernatant
T2 sequence (P11344 19-533): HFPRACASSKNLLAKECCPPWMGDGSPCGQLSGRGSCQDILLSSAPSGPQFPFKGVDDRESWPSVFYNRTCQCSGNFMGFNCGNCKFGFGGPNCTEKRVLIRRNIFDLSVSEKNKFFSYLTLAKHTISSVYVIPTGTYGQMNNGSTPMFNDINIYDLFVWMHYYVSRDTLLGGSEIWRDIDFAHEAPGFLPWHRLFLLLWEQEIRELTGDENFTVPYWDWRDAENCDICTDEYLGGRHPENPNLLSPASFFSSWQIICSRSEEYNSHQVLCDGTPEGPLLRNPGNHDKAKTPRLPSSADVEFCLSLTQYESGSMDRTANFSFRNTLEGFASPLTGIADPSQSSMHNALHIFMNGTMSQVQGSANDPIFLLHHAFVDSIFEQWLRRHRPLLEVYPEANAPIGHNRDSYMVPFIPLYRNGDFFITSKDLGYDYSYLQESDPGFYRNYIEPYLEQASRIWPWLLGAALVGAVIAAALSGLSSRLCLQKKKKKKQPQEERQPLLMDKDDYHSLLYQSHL
Experimental: (§2) Cell-based activity assays with inhibitors—The melanin content and MTT conversion were measured in B16F10 murine melanoma cells that were purchased from the Korean Cell Line Bank (Seoul, Korea). When the density of B16F10 cells reached 1 × 10^5 cells, the test inhibitors (10, 20, and 50 μM) and 3-isobutyl-1-methylxanthine (IBMX, 100 μM) were added, and the cells were incubated for 48 h. The amount of melanin released into the extracellular area was quantified by measuring the absorbance at 405 nm, and was subsequently expressed as a percentage relative to the untreated control. The change in the reduction of the MTT dye into formazan in the cell was quantitatively interpreted as the cellular toxicity induced by the inhibitor. The inhibition of tyrosinase was also estimated using the B16F10 cell lysates, as described previously [28]. In brief, the cells were lysed in PBS supplemented with 1% (w/v) Triton X-100, centrifuged at 14,000 g for 30 min, and then the supernatants were dialysed to remove Triton X-100. After adding 500 μM L-DOPA and the inhibitors (10, 20, and 50 μM) to the prepared lysates, the change in absorbance over time at 475 nm was measured. The decrease in absorbance was calculated relative to the absorbance of the untreated controls.

[2] = set-up: method as in PMID 22587354, PMID 18551414, PMID 15667143; details: extracted from the ZINC database ref 33,34,35; cited from earlier work
mushroom tyrosinase [3] = target: T1, mushroom tyrosinase; assay: Mushroom tyrosinase enzyme inhibition assay (dopachrome absorbance at 475 nm); format: biochemical; details: for LE, ligand efficiency: −1.37 × (Log10Ki)/HA, HA = number of heavy atoms; for inhibition of mushroom tyrosinase (in words): enzyme assay with 0.01% Triton X-100
Experimental: (§1) Enzyme activity and kinetics experiments with inhibitors—All of the reagents used in this study were purchased from ChemBridge (San Diego, CA, USA), Sigma-Aldrich (St. Louis, MO, USA), or Tokyo Chemical Industry (Tokyo, Japan). The reaction solution for the enzyme assay was prepared with 200 nM mushroom tyrosinase and inhibitors in phosphate-buffered saline (PBS), containing 5% dimethyl sulphoxide and 0.01% (w/v) Triton X-100. After incubating the mixture at 30 °C for 10 min, 500 μM L-tyrosine was added as the substrate. […] The IC50 was evaluated by analysing different concentrations of each inhibitor. The inhibitory constants (Ki) were converted from the IC50 values using the Km obtained from kinetics experiments and substrate concentration based on the Cheng–Prusoff equation [60]. A series of substrates at concentrations of 0.25, 0.33, 0.4, 0.5, 0.67, and 1 mM were used to obtain the respective velocities (V) for enzyme inhibitory kinetics. The concentrations of each inhibitor were varied and comprised the range that included the IC50 value. Four models (competitive, uncompetitive, non-competitive, and mixed) that were derived from the Michaelis-Menten equation were used to fit the kinetic parameters, maximum velocity (Vmax), Michaelis constant (Km), and the dissociation constants between the substrate-free enzyme and inhibitor (Kic) and the substrate-bound enzyme and inhibitor (Kiu). The data from all the concentrations of the substrate and inhibitor were simultaneously fitted nonlinearly by minimising the χ^2 value, defined as the sum of the squared deviations between experimental and fitted values for each model. The appropriate model was selected based on the F-test with χ^2 values from the four models, coupled with the extraction of the related parameters. All of the fittings and statistical analyses in this study were computed by using MATLAB® (MathWorks, Natick, MA, USA).
Target sequence in this assay (C7FF04 1-392): as the sequence (C7FF04 1-392 limits assumed) above

mushroom tyrosinase [4] = target: T1, mushroom tyrosinase; assay: Enzyme inhibitory kinetics with nonlinear fitting of Michaelis-Menten models; format: biochemical; details: for Mechanism of inhibition: model chosen by χ2 and F-test among competitive, uncompetitive, non-competitive, mixed; for Ki: nonlinear data fitting, competitive model, read-out: kinetically fitted Ki
Experimental: as §1
Target sequence in this assay (C7FF04 1-392): as the sequence (C7FF04 1-392 limits assumed) above

[5] = test system: B16F10 murine melanoma cells; assay: Melanin content assay in B16F10 cells; format: cell-based; details: 10, 20 and 50 μM tested, 48 h
Experimental: as §2

melanin contents = test system: melanin contents; set-up: method as in PMID 23123645, PMID 23411395, PMID 22901670; details: higher concentrations (>100 μM) ref 44,45,46; cited from earlier work
human hepatocytes = details: up to several tens of μM ref 43; cited from earlier work

Nn1c(S)nnc1-c1ccncc1 [ZINC509439, 4-amino-5-(4-pyridyl)-4H-1,2,4-triazole-3-thiol]
Ki (tyrosinase; BindingDB entry ref 48, read-out: reported Ki): 1 µM

OC[C@H]1O[C@@H](n2cnc3c(S)ncnc32)[C@H](O)[C@@H]1O [Thioinosine, thioinosine]
Tm of tyrosinase in complex with inhibitor (mushroom tyrosinase [1]): 51.0 ± 0.2 °C | Tm of tyrosinase in complex with inhibitor (mushroom tyrosinase [1]; listed as thioinosine): 51.0 °C | inhibition of tyrosinase in B16F10 cell lysates (in words) (mammalian tyrosinase): inhibited melanin syntheses in a concentration-dependent manner | LogP [2]: −0.90 | Ki (mushroom tyrosinase [3]; read-out: Ki): 8 µM | LE, ligand efficiency (mushroom tyrosinase [3]): 0.34 | Mechanism of inhibition (mushroom tyrosinase [4]): Competitive | Mechanism of inhibition (mushroom tyrosinase [4]; listed as thioinosine): competitive inhibitors | Ki (mushroom tyrosinase [4]): 14 µM | reduction of melanin content (in words) [5]: markedly reduced the melanin content at 20 and 50 μM

NC(CC(=O)O)C(=O)O (racemic) [D,L-aspartic acid]
inhibition of mushroom tyrosinase (in words) (mushroom tyrosinase [3]): only thioguanine exerted inhibitory action

O=Cc1ccc(O[C@@H]2O[C@H](CO)[C@@H](O)[C@@H](O)[C@H]2O)cc1 [ZINC5234422, 4-(β-D-allopyranosyloxy)benzaldehyde]
IC50 (tyrosinase; BindingDB entry ref 48, read-out: half-maximal inhibitory concentration (IC50)): 94 µM

O=c1cc(CO)occ1O [Kojic acid, kojic acid]
LogP [2]: −0.16 | reduction of melanin content (in words) [5]: marginal | decrease of melanin contents (melanin contents): meaningful decreases

Nc1nc2nc[nH]c2c(=O)[nH]1 [Guanine, guanine]
LogP [2]: −0.77 | Ki (mushroom tyrosinase [3]): > 1000 µM | inhibition of mushroom tyrosinase (in words) (mushroom tyrosinase [3]): only thioinosine inhibited tyrosinase

Cn1cnc([N+](=O)[O-])c1Sc1ncnc2nc[nH]c12 [Azathioprine, azathioprine]
LogP [2]: 1.15 | Ki (mushroom tyrosinase [3]): > 1000 µM | inhibition of mushroom tyrosinase (in words) (mushroom tyrosinase [3]): but not azathioprine, exerted an inhibitory activity; also recorded: poor inhibitor

O=c1[nH]cnc2nc[nH]c12 [Hypoxanthine, hypoxanthine]
LogP [2]: −0.35 | Ki (mushroom tyrosinase [3]): > 1000 µM | inhibition of mushroom tyrosinase (in words) (mushroom tyrosinase [3]): only thioinosine inhibited tyrosinase

CCCN(CCC)S(=O)(=O)c1ccc(C(=O)O)cc1 [probenecid]
inhibition of mushroom tyrosinase (in words) (mushroom tyrosinase [3]): only thioguanine exerted inhibitory action

N[C@@H](CSCC(=O)O)C(=O)O [S-carboxymethyl-L-cysteine]
inhibition of mushroom tyrosinase (in words) (mushroom tyrosinase [3]): only thioguanine exerted inhibitory action

COc1ccc(/C=C/C(=O)Nc2ccccc2C(=O)O)cc1OC [tranilast]
inhibition of mushroom tyrosinase (in words) (mushroom tyrosinase [3]): only thioguanine exerted inhibitory action

Nc1nc2nc[nH]c2c(=S)[nH]1 [Thioguanine, thioguanine]
Tm of tyrosinase in complex with inhibitor (mushroom tyrosinase [1]): 49.8 ± 0.2 °C | Tm of tyrosinase in complex with inhibitor (mushroom tyrosinase [1]; listed as thioguanine): 49.8 °C | inhibition of tyrosinase in B16F10 cell lysates (in words) (mammalian tyrosinase): inhibited melanin syntheses in a concentration-dependent manner | LogP [2]: 0.60 | inhibition of mushroom tyrosinase (in words) (mushroom tyrosinase [3]): only thioguanine exerted inhibitory action | Ki (mushroom tyrosinase [3]; read-out: Ki): 52 µM | Mechanism of inhibition (mushroom tyrosinase [4]): Competitive | Mechanism of inhibition (mushroom tyrosinase [4]; listed as thioguanine): competitive inhibitors | Ki (mushroom tyrosinase [4]): 40 µM | reduction of melanin content (in words) [5]: markedly reduced the melanin content at 20 and 50 μM

O=C(O)c1cc(-c2ccc(F)cc2F)ccc1O [diflunisal]
reported inhibition of tyrosinase through direct binding (tyrosinase): has been reported

Sc1ncnc2nc[nH]c12 [Mercaptopurine, mercaptopurine]
Tm of tyrosinase in complex with inhibitor (mushroom tyrosinase [1]): 49.0 ± 0.2 °C | Tm of tyrosinase in complex with inhibitor (mushroom tyrosinase [1]; listed as mercaptopurine): 49.0 °C | inhibition of tyrosinase in B16F10 cell lysates (in words) (mammalian tyrosinase): highest inhibition | inhibition of tyrosinase in B16F10 cell lysates (in words) (mammalian tyrosinase; listed as mercaptopurine): inhibited melanin syntheses in a concentration-dependent manner | cytotoxicity in human hepatocytes (human hepatocytes): less cytotoxic up to several tens of μM | LogP [2]: 1.00 | Ki (mushroom tyrosinase [3]; read-out: Ki): 16 µM | LE, ligand efficiency (mushroom tyrosinase [3]): 0.61 | Mechanism of inhibition (mushroom tyrosinase [4]): Competitive | Mechanism of inhibition (mushroom tyrosinase [4]; listed as mercaptopurine): competitive inhibitors | Ki (mushroom tyrosinase [4]): 29 µM | reduction of melanin content (in words) [5]: less effective

O=C(O)c1cccnc1Nc1cccc(C(F)(F)F)c1 [nifumic acid]
inhibition of mushroom tyrosinase (in words) (mushroom tyrosinase [3]): only thioguanine exerted inhibitory action

Nc1ccc(C(=O)NCC(=O)O)cc1 [aminohippuric acid]
reported inhibition of tyrosinase through direct binding (tyrosinase): has been reported
